In paper PMC7058083, “Structural basis of ligand binding modes at the human formyl peptide receptor 2” (Nature Communications, 2020):
Positions count from the first letter of the chain named.

Columns and labels:
Experiment in all cases: Saturation binding of WK(FITC)YMVm, flow cytometry on HEK293F cells
[1] = target: T1, wild-type (WT) and mutant FPR2 (Homo sapiens, UniProt P25090, R201F); settings: mutation R201F
T1 construct: expressed in transfected cells; host or cells: HEK293F
Procedure: (§1) Flag-tagged wild-type and mutant FPR2s were cloned into the pTT5 vector and expressed in HEK293F cells. The cells were harvested, and washed with Hanks’ Balanced Salt Solution (HBSS) buffer supplemented with 0.5% bovine serum albumin and 20 mM HEPES, pH 7.4. The cells were then resuspended in the same buffer to the final concentration of 1 × 10^6 cells per ml. The cell-surface expression was measured as mentioned above. […] Mean fluorescent intensity of each well was then read by a FCM (flow cytometry) reader (Millipore). […] For competitive binding of fMLFK, cells were plated in 96-well plates (100,000 cells per well), and incubated with WK(FITC)YMVm at 4 °C for 1 h. The following concentrations of WK(FITC)YMVm were used: 10 nM (wild type, L81^2.60F, E89G, and V105^3.32A), 30 nM (D281^7.32G), 40 nM (H102^3.29F, V160^4.60A, L268^ECL3A, N285^7.36A, and F292^7.43A), and 100 nM (L164^4.64A and T177A). Then increasing concentrations of fMLFK (100 nM–1 mM) were added, and incubated for another 1 h on ice. Mean fluorescent intensity values were measured by flow cytometry. Data were analyzed using Prism 7.0.

[2] = target: T2, wild-type (WT) and mutant FPR2 (Homo sapiens, UniProt P25090, D281A); settings: FPR2 D281A
T2 construct: expressed in transfected cells; host or cells: HEK293F
Procedure: as §1

[3] = target: T3, wild-type (WT) and mutant FPR2 (Homo sapiens, UniProt P25090, H102F); settings: FPR2 H102F
T3 construct: expressed in transfected cells; host or cells: HEK293F
T3 sequence (P25090 1-351 H102F): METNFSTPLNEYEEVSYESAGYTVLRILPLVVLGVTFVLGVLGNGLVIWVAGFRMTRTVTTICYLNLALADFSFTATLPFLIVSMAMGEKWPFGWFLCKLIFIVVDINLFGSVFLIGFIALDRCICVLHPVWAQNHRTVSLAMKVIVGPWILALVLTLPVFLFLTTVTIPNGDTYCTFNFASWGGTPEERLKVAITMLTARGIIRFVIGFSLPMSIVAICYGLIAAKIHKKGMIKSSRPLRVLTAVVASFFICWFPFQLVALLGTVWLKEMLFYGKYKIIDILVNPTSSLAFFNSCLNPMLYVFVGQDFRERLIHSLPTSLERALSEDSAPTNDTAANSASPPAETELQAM
Procedure: as §1

[4] = target: T4, wild-type (WT) and mutant FPR2 (Homo sapiens, UniProt P25090, T177A); settings: FPR2 T177A
T4 construct: expressed in transfected cells; host or cells: HEK293F
T4 sequence (P25090 1-351 T177A): T3 sequence (P25090 1-351 H102F) with F102H, T177A
Procedure: as §1

[5] = target: T5, wild-type (WT) and mutant FPR2 (Homo sapiens, UniProt P25090, V160A); settings: FPR2 V160A
T5 construct: expressed in transfected cells; host or cells: HEK293F
T5 sequence (P25090 1-351 V160A): T3 sequence (P25090 1-351 H102F) with F102H, V160A
Procedure: as §1

[6] = target: T6, wild-type (WT) and mutant FPR2 (Homo sapiens, UniProt P25090, F257Y); settings: FPR2 F257Y
T6 construct: expressed in transfected cells; host or cells: HEK293F
Procedure: as §1

[7] = target: T7, wild-type (WT) and mutant FPR2 (Homo sapiens, UniProt P25090, N285A); settings: FPR2 N285A
T7 construct: expressed in transfected cells; host or cells: HEK293F
T7 sequence (P25090 1-351 N285A): T3 sequence (P25090 1-351 H102F) with F102H, N285A
Procedure: as §1

[8] = target: T8, wild-type (WT) and mutant FPR2 (Homo sapiens, UniProt P25090, D281L); settings: FPR2 D281L
T8 construct: expressed in transfected cells; host or cells: HEK293F
Procedure: as §1

T6 sequence (P25090 whole entry F257Y): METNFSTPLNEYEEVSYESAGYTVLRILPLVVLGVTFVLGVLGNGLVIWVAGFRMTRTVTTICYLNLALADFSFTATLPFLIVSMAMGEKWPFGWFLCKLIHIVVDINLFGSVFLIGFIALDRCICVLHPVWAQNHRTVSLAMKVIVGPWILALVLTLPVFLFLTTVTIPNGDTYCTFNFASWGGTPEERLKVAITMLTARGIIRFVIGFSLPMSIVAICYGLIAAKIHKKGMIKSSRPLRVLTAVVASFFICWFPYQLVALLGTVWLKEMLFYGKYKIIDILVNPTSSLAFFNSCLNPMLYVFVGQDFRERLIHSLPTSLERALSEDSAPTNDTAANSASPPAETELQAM
T2 sequence (P25090 whole entry D281A): as the sequence (P25090 whole entry F257Y) above, with Y257F, D281A counted along it
T8 sequence (P25090 whole entry D281L): as the sequence (P25090 whole entry F257Y) above, with Y257F, D281L counted along it
T1 sequence (P25090 whole entry R201F): as the sequence (P25090 whole entry F257Y) above, with R201F, Y257F counted along it

WK(FITC)YMVm binding [1]: substantially reduced
Span (% of WT), saturation binding [2]: 42 ± 8 % of WT
Kd ([2]; mean ± s.e.m., n=3, SEM): 48.6 ± 17.6 nM
Span (% of WT), saturation binding [3]: 44 ± 4 % of WT
Kd ([3]; mean ± s.e.m., n=3, SEM): 43.5 ± 16.0 nM
Span (% of WT), saturation binding [4]: 66 ± 5 % of WT
Kd ([4]; mean ± s.e.m., n=3, SEM): 109 ± 34 nM
Span (% of WT), saturation binding [5]: 30 ± 4 % of WT
Kd ([5]; mean ± s.e.m., n=4, SEM): 36.1 ± 18.1 nM
Span (% of WT), saturation binding [6]: 57 ± 6 % of WT
Kd ([6]; mean ± s.e.m., n=3, SEM): 154 ± 48 nM
Span (% of WT), saturation binding [7]: 85 ± 13 % of WT
Kd ([7]; mean ± s.e.m., n=4, SEM): 43.3 ± 15.3 nM
Span (% of WT), saturation binding [8]: 39 ± 11 % of WT
Kd ([8]; mean ± s.e.m., n=3, SEM): 57.6 ± 14.0 nM
SMILES: CSCC[C@H](NC(=O)[C@H](Cc1ccc(O)cc1)NC(=O)[C@H](CCCCNC(=S)Nc1ccc2c(c1)C(=O)OC21c2ccc(O)cc2Oc2cc(O)ccc21)NC(=O)[C@@H](N)Cc1c[nH]c2ccccc12)C(=O)N[C@H](C(=O)N[C@H](CCSC)C(N)=O)C(C)C [WK(FITC)YMVm]
